# Source: patent publication CN103739564A, “缬沙坦的多晶型及其制备方法” (Shanghai Institute of Materia Medica of CAS, priority 2012, dated 2013)
# Experiment: Hygroscopicity analysis (DVS) of the valsartan crystal forms
# Type: physicochemical
# Conditions: new crystal forms; result in words only; DVS comparison (Figure 11) not in text
compound,measurement,value
"CCCCC(=O)N(Cc1ccc(-c2ccccc2-c2nnn[nH]2)cc1)[C@H](C(=O)O)C(C)C [晶型E, (S)-N-(1-戊酰基)-N-[[2’-(1H-四唑-5-基)[1,1’-联苯]-4-基]甲基]-L-缬氨酸]",hygroscopicity,吸湿性小
